Results from the NIST ThermoML archive (doi:10.1016/j.fluid.2006.12.015).

Columns and labels:
[1] = refractive index (Na D-line) (dimensionless); settings: 298.15 K; 101.33 kPa; Liquid; Standard Abbe refractometry
[2] = Liquid, Ebulliometric method (Recirculating still)

C1CCCCC1 [cyclohexane]
Settings | refractive index
[1] | 1.4235

[2]
Settings | vapor or sublimation pressure [kPa]
318.47 K | 30.51
326.06 K | 40.65
331.63 K | 49.56
337.52 K | 60.6
342.21 K | 70.8
343.15 K | 72.66
346.25 K | 80.64
350.08 K | 90.89
353.15 K | 99.41
353.32 K | 100.38

Cc1ccccc1 [toluene]
Settings | refractive index
[1] | 1.4939

CCOC(C)(C)C [2-ethoxy-2-methylpropane]
Settings | refractive index
[1] | 1.373

[2]
Settings | vapor or sublimation pressure [kPa]
312.51 K | 30.76
318.88 K | 39.54
326.24 K | 52.05
331.11 K | 62.01
333.15 K | 66.52
335.04 K | 71.06
339.18 K | 81.64
342.53 K | 91.06
343.15 K | 92.96
345.9 K | 101.41

CCSCC [3-thiapentane]
Settings | refractive index
[1] | 1.44

[2]
Settings | vapor or sublimation pressure [kPa]
333.15 K | 34.97
343.15 K | 50.14
353.15 K | 70.15
